From article PMC6327263, “Evaluation of Novel 3-Hydroxyflavone Analogues as HDAC Inhibitors against Colorectal Cancer” (Advances in Pharmacological Sciences, 2018)
“And” between values parts separate entries of the source, which are not always exact repeats. Equal values may be shown once. Marks after values point to notes of the source that are not given here.

Columns and labels:
[1] = system: VERO cells; test: MTT cytotoxicity assay, Vero; format: cell-based, African green monkey; details: Chlorocebus sabaeus, 48 h, mean ± SEM of three experiments
Method: Human colorectal carcinoma cell line (HCT116) and African green monkey kidney epithelial cells (VERO) were obtained from National Centre for Cell Science, Pune, MH, India. For their maintenance, the cells were grown in Dulbecco's Modified Eagle's Medium (DMEM) which was supplemented with 10% fetal bovine serum (FBS) and 1 × penicillin/streptomycin at 37°C in CO2 incubator (NU-5501E/G, NuAire Inc., Plymouth, MN, USA) in a humidified atmosphere of 5% CO2 and 95% air.
Cytotoxicity for the synthesized analogues was determined using MTT assay. In brief, HCT116 and VERO cells were harvested from the tissue culture flask and seeded in sterile 96 well plates at a density of 5000 cells per well. After overnight adherence, different concentrations of test compounds were added and incubated for 48 h. Next, 50 µl of the MTT reagent (HiMedia Laboratories, Mumbai, India) (2 mg/ml in the sterile phosphate buffer saline (PBS)) was added into each well and incubated for 3 h. The formazan crystals formed were solubilized using 100% dimethyl sulfoxide (DMSO), and the optical density was measured at 540 nm using the microplate reader (ELx800, BioTek Instruments Inc., Winooski, VT, USA).

[2] = system: HCT116 cells; test: Annexin V staining; format: cell-based, human; details: SAHA 5 µM, quercetin 100 µM, QMJ-2 100 µM, QMJ-5 50 µM, normal control 21.30%
Method: Mechanism of cell death induced by synthesized analogues was determined using annexin V staining. In brief, as per annexin V flow cytometry kit protocol (#MCH100105), 1 × 10^6 cells were seeded in a cell culture dish and after overnight adherence, were incubated with test compounds. Cells were then detached by trypsinization, centrifuged, and washed with PBS. Cell suspension (100 µl) was mixed with Muse annexin V reagent (100 µl) and incubated for 20 min at room temperature. The stained cells were quantitatively analyzed for live, early, and late apoptosis using Muse cell analyzer (#0500-3115 Merck Millipore).

[3] = target: T1, recombinant human HDAC8 enzyme (Homo sapiens, UniProt Q9BY41); test: HDAC8 enzyme inhibition assay; format: biochemical; details: mean ± SEM of three experiments
T1 construct: purchased Enzo Life Science, NY, USA BML-AK518
T1 sequence (Q9BY41 1-377): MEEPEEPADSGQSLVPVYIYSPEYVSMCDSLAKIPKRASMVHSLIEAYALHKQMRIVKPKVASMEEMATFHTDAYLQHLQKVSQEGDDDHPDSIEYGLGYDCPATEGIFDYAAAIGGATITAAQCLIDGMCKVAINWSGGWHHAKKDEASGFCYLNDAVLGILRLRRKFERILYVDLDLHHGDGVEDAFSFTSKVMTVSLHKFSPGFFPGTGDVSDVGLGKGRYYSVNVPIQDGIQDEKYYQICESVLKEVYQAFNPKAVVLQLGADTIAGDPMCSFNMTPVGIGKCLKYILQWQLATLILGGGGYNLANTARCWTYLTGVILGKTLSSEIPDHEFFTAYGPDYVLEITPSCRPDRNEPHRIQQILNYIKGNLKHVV
Method: The enzymatic reaction was conducted as per Enzo Life Science, NY, USA (BML-AK518) kit protocol. In brief, 10 µl of different concentration of test compounds were added to a 40 µl reaction mixture containing the HDAC assay buffer, HDAC8 substrate, and recombinant human HDAC8 enzyme. The reactions were incubated for 20 min at 30°C. Then, 50 µl of the HDAC developer was added in each well, and the plate was incubated at room temperature for an additional 45 min. Fluorescence intensity was measured at an excitation of 360 nm and an emission of 460 nm using a fluorescence microplate reader (FLx800, BioTek Instruments Inc., Winooski, VT, USA).

[4] = system: DMH-induced colon cancer; format: in vivo, Wistar rats; details: for ACF/5 cm^2 / Adenocarcinoma: 21 days treatment, quercetin, QMJ-2, QMJ-5 100 mg/kg p.o., mean ± SEM of six animals; for ACF/5 cm^2: DMH control 25 ± 2.1; for Adenocarcinoma: count in colon, DMH control 17 ± 1.7; for kidney index / liver index / spleen index: rat, in vivo, po, 100 mg/kg
Method: The two test compounds (QMJ-2 and QMJ-5) and quercetin were suspended in 0.25% w/v sodium carboxymethyl cellulose (CMC) and were administered orally (p.o.). 5-Fluorouracil (5-FU) which was used as a standard was procured in the form of injection and was administered intraperitonially (i.p.).
Colon cancer in experimental animals was induced using the highly specific carcinogen DMH, with few modifications from the previously described procedure. DMH was administered at a dose of 30 mg/kg i.p. once a week for 20 weeks. The incidence of aberrant crypt foci (ACF) and adenocarcinoma were confirmed by sacrificing few animals after 20 weeks of induction with DMH. Furthermore, the animals were randomized into five experimental groups, and various treatments were administered for a period of 21 days followed by the assessment of different parameters in the experimental animals.
(1) Experimental Groups • Group 1: animals received 0.25% CMC in water p.o. • Group 2: animals received 0.25% CMC in water p.o. (DMH control) • Group 3: animals received 5-FU at 10 mg/kg i.p. • Group 4: animals received quercetin at 100 mg/kg p.o. • Group 5: animals received QMJ-2 at 100 mg/kg p.o. • Group 6: animals received QMJ-5 at 100 mg/kg p.o.
(2) ACF Formation and Adenocarcinoma Incidence. The entire colon was excised from the experimental animals and was used to study the incidence of adenocarcinoma. The count and size were noted from each animal. For ACF formation, the distal part of the colon was excised, and the tissue was then cut open and fixed with 10% buffered formalin for 12 h. Following this, the tissue was stained with 0.1% methylene blue in PBS for 5 min. The tissues were then observed under microscope for ACF formation and were calculated as the number of counts/5 cm^2 in colon tissue.
(3) Colon Weight/Length Ratio and Organ Index. Length of the excised colon was measured in centimeters, and weight was measured in g. Colon weight/length ratio was then calculated. For the determination of organ index, major organs including spleen, liver, and kidney of the experimental animals were weighed in g and the respective index was calculated. […]

[5] = system: caspase 3/7 in HCT116 cells; test: Caspase 3/7 activation assay; format: cell-based, human; details: SAHA 5 µM, quercetin 100 µM, QMJ-2 100 µM, QMJ-5 50 µM; for percentage of apoptotic cells (Apoptotic/Dead, caspase 3/7): normal control 24.60%; for percentage of live cells (caspase 3/7): normal control 69.40%
Method: The downstream signaling pathway of apoptosis was determined using the caspase 3/7 activation assay. In brief, as per the caspase 3/7 activation kit protocol (#MCH100108), 1 × 10^6 cells were seeded in the cell culture dish and after overnight adherence, were incubated with the test compounds. The cells were detached by trypsinization, centrifuged, and washed with PBS. Cell suspension (50 µl) was mixed with the caspase 3/7 antibody reagent (5 µl) and incubated at 37°C temperature for 30 min. 7-AAD (7-amino-actinomycin D) working solution (150 µl) was added, and stained cells were then analyzed in Muse Cell Analyzer (#0500-3115 Merck Millipore).

Compound | IC50 [1] [µM] | percentage of cells undergoing late apoptosis (Late Apop./Dead, annexin V) [2] [%] | IC50 [3] [µM] | ACF/5 cm^2 ([4]; 5-FU 10 mg/kg i.p.) | Adenocarcinoma ([4]; 5-FU 10 mg/kg i.p.) | kidney index [4] | liver index [4] | percentage of apoptotic cells (Apoptotic/Dead, caspase 3/7) [5] [%] | percentage of live cells (caspase 3/7) [5] [%] | spleen index [4] | colon weight/length ratio ([4]; compared with DMH control, 5-FU 10 mg/kg i.p., others 100 mg/kg p.o., 21 days)
Cc1ccc(-c2oc3cc(C)ccc3c(=O)c2O)cc1 [QMJ-5, 3-Hydroxy-7-methyl-2-(4-methylphenyl)-4H-1-benzopyran-4-one] | 55.6 ± 3.8 | 38.65 | 24 ± 2.8 | 15 ± 2.6 /5 cm^2 and 15 ± 2.6^a /5 cm^2 | 11 ± 0.8^a | no significant change | Significant reduction | 83.55 | 8.05 | – | –
O=c1c(O)c(-c2ccc(O)c(O)c2)oc2cc(O)cc(O)c12 [Quercetin, quercetin, reference compound] | 202 ± 7.5 | 35.80 | 15.4 ± 1.53 | 19 ± 2.6 /5 cm^2 | 15 ± 1.1 | – | – | 59.65 | – | significant decrease | –
Cc1ccc(-c2oc3ccccc3c(=O)c2O)cc1 [QMJ-2, 3-Hydroxy-2-(4-methylphenyl)-4H-1-benzopyran-4-one] | 140 ± 6.8 | 35.20 | 36 ± 4.17 | 16 ± 2.1 /5 cm^2 and 16 ± 2.1^a /5 cm^2 | 14 ± 1.3 | no significant change | Significant reduction | 55.70 | 37.40 | significant decrease | significant decrease
